Data on 34 molecules can be found in US8541588B2, “Sulfonamide derivatives” (Pfizer Limited, priority 2009, dated 2013).

A value given as a limit tells only on which side of the number the result lay.

This assay concerns the target T1, Nav1.7 (or SCN9A) channel; HEK cells stably transfected with hSCN9A (Homo sapiens, UniProt Q15858).
T1 construct: expressed in transfected cells
Kind of assay: Nav1.7 block, PatchXpress 7000 automated whole-cell voltage clamp, estimated IC50 (EIC50). It is filed as cell-based. The following applies: estimated IC50; hSCN9A HEK cells, PatchXpress platform; Examples 283-814.

T1 sequence (Q15858 whole entry): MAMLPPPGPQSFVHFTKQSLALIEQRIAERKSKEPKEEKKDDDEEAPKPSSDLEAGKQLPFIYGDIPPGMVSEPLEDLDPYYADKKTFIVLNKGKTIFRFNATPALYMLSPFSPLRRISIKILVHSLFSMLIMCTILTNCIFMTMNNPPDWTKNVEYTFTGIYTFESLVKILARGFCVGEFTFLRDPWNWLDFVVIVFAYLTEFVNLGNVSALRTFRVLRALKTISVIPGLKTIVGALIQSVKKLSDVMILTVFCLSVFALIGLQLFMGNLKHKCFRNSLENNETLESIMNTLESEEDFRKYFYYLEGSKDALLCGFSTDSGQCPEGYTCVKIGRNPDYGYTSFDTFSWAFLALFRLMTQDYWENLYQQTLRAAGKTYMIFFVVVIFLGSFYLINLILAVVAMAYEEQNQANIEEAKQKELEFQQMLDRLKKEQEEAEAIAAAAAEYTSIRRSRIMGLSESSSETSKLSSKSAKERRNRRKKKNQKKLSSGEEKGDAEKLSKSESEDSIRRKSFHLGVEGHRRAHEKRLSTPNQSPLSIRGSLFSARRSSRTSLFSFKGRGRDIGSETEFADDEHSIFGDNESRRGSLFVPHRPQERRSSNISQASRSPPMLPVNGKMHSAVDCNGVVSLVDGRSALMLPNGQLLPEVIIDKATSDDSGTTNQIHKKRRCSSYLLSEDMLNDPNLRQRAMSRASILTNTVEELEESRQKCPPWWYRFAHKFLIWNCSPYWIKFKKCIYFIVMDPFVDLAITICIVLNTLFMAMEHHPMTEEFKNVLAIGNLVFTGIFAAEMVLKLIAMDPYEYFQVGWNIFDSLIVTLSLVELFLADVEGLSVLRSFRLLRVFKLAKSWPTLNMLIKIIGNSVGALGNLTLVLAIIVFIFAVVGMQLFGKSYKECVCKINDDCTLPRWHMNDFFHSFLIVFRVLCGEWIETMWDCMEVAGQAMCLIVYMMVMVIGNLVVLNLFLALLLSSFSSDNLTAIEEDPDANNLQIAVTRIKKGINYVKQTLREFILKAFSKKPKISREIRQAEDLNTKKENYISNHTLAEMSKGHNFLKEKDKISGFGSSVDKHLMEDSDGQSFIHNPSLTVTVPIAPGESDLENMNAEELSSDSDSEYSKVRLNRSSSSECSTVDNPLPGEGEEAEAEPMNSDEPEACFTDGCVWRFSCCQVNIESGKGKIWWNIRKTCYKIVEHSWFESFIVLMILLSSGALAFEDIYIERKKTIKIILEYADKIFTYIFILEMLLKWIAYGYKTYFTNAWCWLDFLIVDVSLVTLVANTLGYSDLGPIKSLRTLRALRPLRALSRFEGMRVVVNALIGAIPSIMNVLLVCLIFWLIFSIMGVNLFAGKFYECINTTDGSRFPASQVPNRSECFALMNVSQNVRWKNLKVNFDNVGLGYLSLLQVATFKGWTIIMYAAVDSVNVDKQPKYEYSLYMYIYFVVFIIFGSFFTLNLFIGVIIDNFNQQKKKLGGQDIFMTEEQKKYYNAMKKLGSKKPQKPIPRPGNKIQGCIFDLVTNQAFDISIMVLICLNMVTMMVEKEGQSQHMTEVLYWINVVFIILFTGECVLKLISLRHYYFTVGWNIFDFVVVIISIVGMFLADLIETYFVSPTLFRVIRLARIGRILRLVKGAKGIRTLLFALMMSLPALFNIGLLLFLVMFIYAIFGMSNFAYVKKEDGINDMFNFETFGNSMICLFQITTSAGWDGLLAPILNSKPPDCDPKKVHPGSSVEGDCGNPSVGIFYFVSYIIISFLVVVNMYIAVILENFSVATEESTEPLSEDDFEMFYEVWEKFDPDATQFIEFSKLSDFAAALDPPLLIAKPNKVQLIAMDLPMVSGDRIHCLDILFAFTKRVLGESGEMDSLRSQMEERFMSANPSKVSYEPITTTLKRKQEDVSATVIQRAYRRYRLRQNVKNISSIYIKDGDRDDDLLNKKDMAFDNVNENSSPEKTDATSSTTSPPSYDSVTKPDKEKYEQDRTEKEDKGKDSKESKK

As for `CC(C)c1cc(-c2cc(C(F)(F)F)nn2C)ccc1Oc1ccc(S(=O)(=O)Nc2nccs2)cc1C#N` [Example 354, 3-cyano-4-{2-isopropyl-4-[1-methyl-3-(trifluoromethyl)-1H-pyrazol-5-yl]phenoxy}-N-1,3-thiazol-2-ylbenzenesulfonamide], the IC50 is 180 nM.
As for `N#Cc1cc(S(=O)(=O)Nc2nccs2)ccc1Oc1ccc(Br)cc1CN1CCCC1` [Example 355, 4-[4-bromo-2-(pyrrolidin-1-ylmethyl)phenoxy]-3-cyano-N-1,3-thiazol-2-ylbenzenesulfonamide], the figure is 400 nM; as for `Cc1cc(C(F)(F)F)nn1-c1ccc(Oc2ccc(S(=O)(=O)Nc3nccs3)cc2C#N)c(C(C)C)c1` [Example 356, 3-cyano-4-{2-isopropyl-4-[5-methyl-3-(trifluoromethyl)-1H-pyrazol-1-yl]phenoxy}-N-1,3-thiazol-2-ylbenzenesulfonamide], 120 nM; as for `N#Cc1cc(S(=O)(=O)Nc2nccs2)ccc1Oc1ccc(Cl)cc1CN1CCC(O)C1` (stereo not shown) [Example 357, 4-{4-chloro-2-[(3-hydroxypyrrolidin-1-yl)methyl]phenoxy}-3-cyano-N-1,3-thiazol-2-ylbenzenesulfonamide], 390 nM.
As for `N#Cc1cc(S(=O)(=O)Nc2nccs2)ccc1Oc1ccc(Cl)cc1CN1CCC(F)(F)CC1` [Example 358, 4-{4-chloro-2-[(4,4-difluoropiperidin-1-yl)methyl]phenoxy}-3-cyano-N-1,3-thiazol-2-ylbenzenesulfonamide], the figure is 360 nM.
In the case of `Cn1nccc1-c1ccc(I)cc1Oc1ccc(S(=O)(=O)Nc2nccs2)cc1C#N` [Example 359, 3-cyano-4-[5-iodo-2-(1-methyl-1H-pyrazol-5-yl)phenoxy]-N-1,3-thiazol-2-ylbenzenesulfonamide], the IC50 was 11 nM.
As to `N#Cc1cc(S(=O)(=O)Nc2nccs2)ccc1Oc1ccc(Cl)cc1CN1CCC(F)(F)C1` [Example 360, 4-{4-chloro-2-[(3,3-difluoropyrrolidin-1-yl)methyl]phenoxy}-3-cyano-N-1,3-thiazol-2-ylbenzenesulfonamide], the IC50 is 330 nM.
As for `Cn1nccc1-c1cc(Cl)ccc1Oc1ccc(S(=O)(=O)Nc2ccncn2)cc1C#N` [Example 361, 4-[4-chloro-2-(1-methyl-1H-pyrazol-5-yl)phenoxy]-3-cyano-N-pyrimidin-4-ylbenzenesulfonamide], the figure is 480 nM.
As for `Cn1nccc1-c1cc(F)ccc1Oc1cc(F)c(S(=O)(=O)Nc2csnn2)cc1Cl` [Example 364, 5-chloro-2-fluoro-4-(4-fluoro-2-(1-methyl-1H-pyrazol-5-yl)phenoxy)-N-(1,2,3-thiadiazol-4-yl)benzenesulfonamide], the figure is 480 nM.
As for `Cn1nccc1-c1cc(OC(F)(F)F)ccc1Oc1ccc(S(=O)(=O)Nc2nccs2)cc1F` [Example 365, 3-fluoro-4-[2-(1-methyl-1H-pyrazol-5-yl)-4-(trifluoromethoxy)phenoxy]-N-1,3-thiazol-2-ylbenzenesulfonamide], the figure is 69 nM; as for `N#Cc1cc(S(=O)(=O)Nc2ccc(F)cn2)ccc1Oc1ccccc1-c1ccccc1` [Example 366, 4-(biphenyl-2-yloxy)-3-cyano-N-(5-fluoropyridin-2-yl)benzenesulfonamide], 4800 nM; as for `CCn1nc(C(F)(F)F)cc1-c1ccc(Oc2ccc(S(=O)(=O)Nc3ccc(F)cn3)cc2C#N)cc1` [Example 367, 3-cyano-4-{4-[1-ethyl-3-(trifluoromethyl)-1H-pyrazol-5-yl]phenoxy}-N-(5-fluoropyridin-2-yl)benzenesulfonamide], 2400 nM.
For `CCn1nc(C(F)(F)F)cc1-c1cccc(Oc2ccc(S(=O)(=O)Nc3ccc(F)cn3)cc2C#N)c1` [Example 368, 3-cyano-4-{3-[1-ethyl-3-(trifluoromethyl)-1H-pyrazol-5-yl]phenoxy}-N-(5-fluoropyridin-2-yl)benzenesulfonamide], the IC50 was more than 1000 nM.
As for `CCn1nc(C2CC2)cc1-c1ccc(Oc2ccc(S(=O)(=O)Nc3nccs3)cc2C#N)cc1` [Example 369, 3-cyano-4-[4-(3-cyclopropyl-1-ethyl-1H-pyrazol-5-yl)phenoxy]-N-1,3-thiazol-2-ylbenzenesulfonamid], the figure is 490 nM; as for `N#Cc1cc(S(=O)(=O)Nc2nccs2)ccc1Oc1ccc(-n2ccc(C3CC3)n2)cc1` [Example 370, 3-cyano-4-[4-(3-cyclopropyl-1H-pyrazol-1-yl)phenoxy]-N-1,3-thiazol-2-ylbenzenesulfonamide], 1600 nM.
`Cn1nc(-c2ccc(Oc3ccc(S(=O)(=O)Nc4nccs4)cc3C#N)cc2)cc1C(F)(F)F` [Example 371, 3-cyano-4-{4-[1-methyl-5-(trifluoromethyl)-1H-pyrazol-3-yl]phenoxy}-N-1,3-thiazol-2-ylbenzenesulfonamide]: the IC50 is 1800 nM.
Take `CCn1nc(-c2ccc(Oc3ccc(S(=O)(=O)Nc4nccs4)cc3C#N)cc2)cc1C1CC1` [Example 372, 3-cyano-4-[4-(5-cyclopropyl-1-ethyl-1H-pyrazol-3-yl)phenoxy]-N-1,3-thiazol-2-ylbenzenesulfonamide]: the IC50 is 2600 nM.
As for `N#Cc1cc(S(=O)(=O)Nc2nccs2)ccc1Oc1ccc(-c2cc(C3CC3)n[nH]2)c(Cl)c1` [Example 373, 4-[3-chloro-4-(3-cyclopropyl-1H-pyrazol-5-yl)phenoxy]-3-cyano-N-1,3-thiazol-2-ylbenzenesulfonamide], the figure is more than 1000 nM.
On to `Cc1cc(-c2ccc(Oc3ccc(S(=O)(=O)Nc4nccs4)cc3C#N)cc2)n(CCO)n1` [Example 374, 3-cyano-4-{4-[1-(2-hydroxyethyl)-3-methyl-1H-pyrazol-5-yl]phenoxy}-N-1,3-thiazol-2-ylbenzenesulfonamide], for which the IC50 is 1900 nM.
Consider `CN(C)C(=O)c1cnn(-c2ccc(Oc3ccc(S(=O)(=O)Nc4nccs4)cc3C#N)cc2)c1` [Example 375, 1-(4-{2-cyano-4-[(1,3-thiazol-2-ylamino)sulfonyl]phenoxy}phenyl)-N,N-dimethyl-1H-pyrazole-4-carboxamide], for which the IC50 is more than 1000 nM.
As for `COCc1cnn(-c2ccc(Oc3ccc(S(=O)(=O)Nc4nccs4)cc3C#N)cc2)c1` [Example 376, 3-cyano-4-{4-[4-(methoxymethyl)-1H-pyrazol-1-yl]phenoxy}-N-1,3-thiazol-2-ylbenzenesulfonamide], the figure is more than 1000 nM.
For the molecule `CN(C)Cc1cnn(-c2ccc(Oc3ccc(S(=O)(=O)Nc4nccs4)cc3C#N)cc2)c1` [Example 377, 3-cyano-4-(4-{4-[(dimethylamino)methyl]-1H-pyrazol-1-yl}phenoxy)-N-1,3-thiazol-2-ylbenzenesulfonamide], the IC50 was more than 1000 nM.
As for `CC(C)(C)NC(=O)c1cnn(-c2ccc(Oc3ccc(S(=O)(=O)Nc4nccs4)cc3C#N)cc2)c1` [Example 378, N-tert-butyl-1-(4-{2-cyano-4-[(1,3-thiazol-2-ylamino)sulfonyl]phenoxy}phenyl)-1H-pyrazole-4-carboxamide], the figure is more than 1000 nM; as for `N#Cc1cc(S(=O)(=O)Nc2nccs2)ccc1Oc1ccc(-n2cc(C(N)=O)cn2)cc1` [Example 379, 1-(4-{2-cyano-4-[(1,3-thiazol-2-ylamino)sulfonyl]phenoxy}phenyl)-1H-pyrazole-4-carboxamide], more than 1000 nM.
As for `N#Cc1cc(S(=O)(=O)Nc2nccs2)ccc1Oc1ccc(-n2ccc(C(F)(F)F)n2)c(Cl)c1` [Example 380, 4-{3-chloro-4-[3-(trifluoromethyl)-1H-pyrazol-1-yl]phenoxy}-3-cyano-N-1,3-thiazol-2-ylbenzenesulfonamide], the figure is 200 nM; as for `N#Cc1cc(S(=O)(=O)Nc2nccs2)ccc1Oc1ccc(-n2ccc(C(F)(F)F)n2)c(F)c1` [Example 381, 3-cyano-4-{3-fluoro-4-[3-(trifluoromethyl)-1H-pyrazol-1-yl]phenoxy}-N-1,3-thiazol-2-ylbenzenesulfonamide], 470 nM.
As for `N#Cc1cc(S(=O)(=O)Nc2nccs2)ccc1Oc1ccc(-c2cc(C(F)(F)F)nn2CCO)cc1` [Example 382, 3-cyano-4-{4-[1-(2-hydroxyethyl)-3-(trifluoromethyl)-1H-pyrazol-5-yl]phenoxy}-N-1,3-thiazol-2-ylbenzenesulfonamide], the IC50 is 50 nM.
As for `Cn1nc(C(F)F)cc1-c1ccc(Oc2ccc(S(=O)(=O)Nc3nccs3)cc2C#N)cc1` [Example 383, 3-cyano-4-{4-[3-(difluoromethyl)-1-methyl-1H-pyrazol-5-yl]phenoxy}-N-1,3-thiazol-2-ylbenzenesulfonamide], the figure is 310 nM; as for `N#Cc1cc(S(=O)(=O)Nc2nccs2)ccc1Oc1ccc(-n2cc(Cl)cn2)c(Cl)c1` [Example 384, 4-[3-chloro-4-(4-chloro-1H-pyrazol-1-yl)phenoxy]-3-cyano-N-1,3-thiazol-2-ylbenzenesulfonamide], 350 nM.
As for `N#Cc1cc(S(=O)(=O)Nc2ncns2)ccc1Oc1ccccc1-c1cn[nH]c1` [Example 385, 4-(2-(1H-pyrazol-4-yl)phenoxy)-3-cyano-N-(1,2,4-thiadiazol-5-yl)benzenesulfonamide], the figure is 67 nM; as for `Cn1nccc1-c1cc(F)ccc1Oc1ccc(S(=O)(=O)Nc2ncc(F)s2)cc1C#N` [Example 386, 3-cyano-4-[4-fluoro-2-(1-methyl-1H-pyrazol-5-yl)phenoxy]-N-(5-fluoro-1,3-thiazol-2-yl)benzenesulfonamide], 91 nM.
Regarding `Cn1nc(C(F)(F)F)cc1-c1ccc(Oc2ccc(S(=O)(=O)Nc3ncc(F)s3)cc2C#N)cc1` [Example 387, 3-cyano-N-(5-fluoro-1,3-thiazol-2-yl)-4-{4-[1-methyl-3-(trifluoromethyl)-1H-pyrazol-5-yl]phenoxy}benzenesulfonamide], the IC50 was 140 nM.
As for `CCn1nc(C)cc1-c1ccc(Oc2ccc(S(=O)(=O)Nc3nccs3)cc2C#N)cc1` [Example 388, 3-cyano-4-[4-(1-ethyl-3-methyl-1H-pyrazol-5-yl)phenoxy]-N-1,3-thiazol-2-ylbenzenesulfonamide], the figure is 740 nM; as for `Cc1nn(C)cc1-c1ccc(Oc2ccc(S(=O)(=O)Nc3nccs3)cc2C#N)cc1` [Example 389, 3-cyano-4-[4-(1,3-dimethyl-1H-pyrazol-4-yl)phenoxy]-N-1,3-thiazol-2-ylbenzenesulfonamide], 1100 nM.

As a reminder, the IC50 is the midpoint of a concentration-inhibition curve.
